Experimental data taken from patent publication US11111232B2, “Substituted cyclobutylpyridine and cyclobutylpyrimidine compounds as indoleamine 2,3-dioxygenase (IDO) inhibitors” (MERCK SHARP & DOHME CORP., priority 2017, dated 2021).

How the values were obtained:
Type in all cases: cell-based
[1] = target: T1, TDO (Homo sapiens, UniProt P48775); assay: TDO cellular assay in frozen SW48 cells; settings: 300 uM L-tryptophan, about 48 hours, fluorescence readout
T1 construct: endogenous in cells; host or cells: SW48 cells (A2780 cells as low-TDO control)
Description: TDO Cellular Assay in Frozen SW48 Cells
SW48 cells were cultured in complete RPMI culture medium (90% RPMI, 10% heat-inactivated fetal bovine serum).
Compounds to be tested were serially diluted in ten 3-fold steps in DMSO starting from 10 mM DMSO stocks in Echo low volume plate(s). […] The cells were spun down at 350 g in a table top centrifuge for 5 minutes and suspended in same volume of RPMI assay medium. […] Sterile L-tryptophan (Sigma, Cat #T0254) was added to the cells with final concentration of 300 uM.
SW48 and A2780 cells were dispensed to the respective wells of 384-well assay plates containing the compounds. The plates were incubated for about 48 hours at a 37° C., 5% CO2 incubator. Afterwards, 12 μL of 0.5 M ethyl isonipecotate (Sigma Aldrich, Cat #E33505) in dimethyl sulfoxide were added into each well and the plates were sealed and incubated at 37° C. without CO2 overnight. The plates were centrifuged for 1 minute at 200×g. The resulting fluorescence was measured in a Spectramax plate reader (Molecular Devices) with a 400 nm excitation filter and a 510 nm emission filter.
The fluorescence intensity of each well was corrected for the background observed in wells with A2780 cells and was expressed as a fraction of the intensity observed in wells of SW48 cells and DMSO only. Potencies were calculated by linear least squares fit to the four parameter logistic IC50 equation.

[2] = target: T2, IDO1 (Homo sapiens, UniProt P14902); assay: IDO1 cellular assay in Hela cells stimulated with IFNγ; settings: IFNγ 100 ng/mL, 300 uM L-tryptophan, about 48 hours, fluorescence readout
Description: IDO1 Cellular Assay in Hela Cells Stimulated with IFNγ
Hela cells were cultured in complete Hela culture medium (90% EMEM, 10% heat-inactivated fetal bovine serum) and expanded to about 1×10^9 cells. The cells were then collected and frozen down at 1×10^7 cells/vial in 1 mL frozen medium (90% complete Hela culture medium, 10% DMSO)
Compounds to be tested were serially diluted in ten 3-fold steps in DMSO starting from 10 mM DMSO stocks in Echo low volume plate(s).
Frozen Hela cells were thawed and transferred into Hela assay medium (99% complete Hela culture medium, 1% Pen/Strep) with 20 mL medium/vial of cells. The cells were spun down at 250 g in a table top centrifuge for 5 min and suspended in same volume of Hela assay medium. […] Sterile L-tryptophan were added to the cells with final concentration of 300 uM L-tryptophan. A small aliquot (2 mL/plate) of Hela cells were set aside and were not treated with IFNγ, to serve as the Max-E control.
Hela cells with and without IFNγ were dispensed to the respective wells of 384-well assay plates containing the compounds. The plates were incubated for about 48 hours at a 37° C., 5% CO2 incubator. Afterwards, […] of 0.5 M methyl isonipecotate in dimethyl sulfoxide were added into each well and the plates were sealed and incubated at 37° C. without CO2 overnight. The plates were centrifuged for 1 min at 200×g. The resulting fluorescence was measured in a Spectramax plate reader (Molecular Devices) with a 400 nm excitation filter and a 510 nm emission filter.
Potencies were calculated by linear least squares fit to the four parameter logistic IC50 equation.

[3] = target: T2, IDO1; assay: IDO1 human whole blood assay; parameters: Human whole blood was drawn in sodium heparin coated tubes from healthy internal donors; from tissue; host or cells: human whole blood from healthy donors, stimulated with LPS and IFNγ; settings: LPS and IFNγ 100 ng/mL, 18 h, kynurenine by LC/MS/MS
Description: IDO1Human Whole Blood Assay
Compounds to be tested were serially diluted in ten 3-fold steps in DMSO starting from 10 mM. […] LPS and IFNγ was prepared in RPMI to a 10× of final conc. (1000 ng/mL), final concentration is 100 ng/mL.
Human whole blood was drawn in sodium heparin coated tubes from healthy internal donors. […] of blood was transferred to each of the wells of a v-bottom 96 well plate. […] of compound was transferred from intermediate dilution plate, and incubated for 15 min. 30 μL from stimulants was then transferred to blood and mixed thoroughly. Plate was covered with breathable membrane and incubated at 37° C. for overnight (18 h).
On day 2 isotope labeled standard of kynurenine and tryptophan was made in water at 10× concentration and […] was added to the blood at […] final concentration. The assay plates were centrifuged at 300×G for 10 min with no brake to separate plasma from red blood cells. […] of plasma samples was removed without disturbing red blood cells. Plasma was diluted with RPMI in 1:1 ratio and proteins were precipitated out with two volume of Acetonitrile. The plates was centrifuged at 4000×G for 60 min. 20 mL of supernatant was carefully transferred to a 384 well plate contain 40 mL of 0.1% formic acid in water and analyzed by LC/MS/MS.
LC/MS/MS analyses were performed using Thermo Fisher's LX4-TSQ Quantum Ultra system. This system consists of four Agilent binary high-performance liquid chromatography (HPLC) pumps and a TSQ Quantum Ultra triple quadruple MS/MS instrument. For each sample, […] were injected onto an Atlantis T3 column (2.1 mm×150 mm, […]) from Waters. The mobile phase gradient pumped at 0.8 mL/min was used to elute the analytes from the column at 25° C. […] Mobile phase A consisted of 0.1% formic acid in water. Mobile phase B consisted of 0.1% of formic acid in acetonitrile. Data was acquired in positive mode using a HESI interface. The operational parameters for the TSQ Quantum Ultra instrument were a spray voltage of 4000 V, capillary temperature of 380° C., vaporizer temperature 400° C., shealth gas 60 arbitrary units, Aux gas 20 arbitrary units, tube lens 85 and collision gas 1.2 mTorr. […] The peak area was integrated by Xcalibur Quan software. The ratios between the kynurenine generated in the reaction and 2D6-Kynurenine spiked-in internal standard were used to generate percentage inhibition and IC50 values. Compounds were titrated and IC50′s were calculated by 4 parameter sigmoidal curve fitting formula.

T2 sequence (P14902 whole entry): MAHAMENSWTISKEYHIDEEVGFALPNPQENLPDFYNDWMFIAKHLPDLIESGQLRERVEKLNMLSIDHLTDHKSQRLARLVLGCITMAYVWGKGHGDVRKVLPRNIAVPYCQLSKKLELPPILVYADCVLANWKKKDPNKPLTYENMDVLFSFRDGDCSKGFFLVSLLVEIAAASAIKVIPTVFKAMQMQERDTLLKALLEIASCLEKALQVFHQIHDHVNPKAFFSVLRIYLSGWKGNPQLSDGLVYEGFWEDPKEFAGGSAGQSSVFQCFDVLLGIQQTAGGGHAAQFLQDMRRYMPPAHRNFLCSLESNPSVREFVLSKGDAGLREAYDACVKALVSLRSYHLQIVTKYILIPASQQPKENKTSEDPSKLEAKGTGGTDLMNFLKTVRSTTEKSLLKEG
T1 sequence (P48775 whole entry): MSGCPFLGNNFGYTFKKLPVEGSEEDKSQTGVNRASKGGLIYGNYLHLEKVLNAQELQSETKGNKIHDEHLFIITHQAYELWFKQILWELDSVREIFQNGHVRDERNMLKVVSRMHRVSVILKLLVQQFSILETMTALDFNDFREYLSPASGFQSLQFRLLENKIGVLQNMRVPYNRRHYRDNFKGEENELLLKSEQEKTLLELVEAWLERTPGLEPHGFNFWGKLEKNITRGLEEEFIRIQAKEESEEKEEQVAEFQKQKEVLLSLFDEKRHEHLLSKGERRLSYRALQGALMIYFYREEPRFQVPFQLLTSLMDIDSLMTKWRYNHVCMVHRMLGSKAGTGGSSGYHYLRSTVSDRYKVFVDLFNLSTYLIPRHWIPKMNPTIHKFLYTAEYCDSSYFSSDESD

| Compound | IC50 [1] [nM] | IC50 [2] [nM] | IC50 [3] [nM] |
| --- | --- | --- | --- |
| O=C(Nc1ccc(C2(C(=O)Nc3ccc(F)cc3)CCC2)cn1)c1cccc(Cl)c1F [Example 14, 3-chloro-2-fluoro-N-(5-{1-[(4-fluorophenyl)carbamoyl]cyclobutyl}pyridin-2-yl)benzamide] | ≥ 10000 | 2080 | 157 |
| O=C(Nc1ccc(C2(C(=O)Nc3ccc(F)cc3)CCC2)cn1)c1cccc(F)c1 [Example 23, 3-Fluoro-N-(5-(1-((4-fluorophenyl)carbamoyl)cyclobutyl)pyridin-2-yl)benzamide] | ≥ 10000 | 3 | 102 |
| N#Cc1cccc(C(=O)Nc2ccc(C3(C(=O)Nc4ccc(F)cc4)CCC3)cn2)c1 [Example 24, 3-cyano-N-(5-{1-[(4-fluorophenyl)carbamoyl]cyclobutyl}pyridin-2-yl)benzamide] | ≥ 10000 | 8 | 351 |
| O=C(Nc1ccc(C2(C(=O)Nc3ccc(F)cc3)CCC2)cn1)c1cncc(Cl)c1 [Example 25, 5-chloro-N-(5-{1-[(4-fluorophenyl)carbamoyl]cyclobutyl}pyridin-2-yl)pyridine-3-carboxamide] | ≥ 10000 | 12 | 561 |
| O=C(Nc1ccc(C2(C(=O)Nc3ccc(F)cc3)CCC2)nc1)c1cccc(Cl)c1 [Example 36, 3-Chloro-N-(6-(1-((4-fluorophenyl)carbamoyl)cyclobutyl)pyridin-3-yl)benzamide] | ≥ 10000 | 3 | 252 |
| O=C(Nc1ccc(C2(C(=O)Nc3ccc(F)cn3)CCC2)nc1)c1cccc(Cl)c1 [Example 37, 3-chloro-N-(6-{1-[(5-fluoropyridin-2-yl)carbamoyl]cyclobutyl}pyridin-3-yl)benzamide] | ≥ 10000 | 15 | 1760 |
| Cc1cc(C(=O)Nc2ccc(C3(NC(=O)c4ccc(Cl)nc4)CCC3)nc2)ccn1 [Example 46, 6-chloro-N-(1-{5-[(2-methylpyridine-4-carbonyl)amino]pyridin-2-yl}cyclobutyl)pyridine-3-carboxamide] | ≥ 10000 | 1060 | – |

Continued, values first:

| IC50 [1] [nM] | IC50 [2] [nM] | IC50 [3] [nM] | Compound |
| --- | --- | --- | --- |
| ≥ 10000 | 25 | 8560 | O=C(Nc1ccc(C2(C(=O)Nc3ccc(F)nc3)CCC2)cn1)C1CCCCC1 [Example 7, N-(5-{1-[(6-fluoropyridin-3-yl)carbamoyl]cyclobutyl}pyridin-2-yl) cyclohexanecarboxamide] |
| ≥ 10000 | 28 | 2880 | O=C(Nc1ccc(C2(C(=O)Nc3ccc(F)cc3)CCC2)cn1)c1ccnc(C(F)(F)F)c1 [Example 29, N-(5-{1-[(4-fluorophenyl)carbamoyl]cyclobutyl}pyridin-2-yl)-2-(trifluoromethyl)pyridine-4-carboxamide] |
| ≥ 10000 | 9 | 406 | O=C(Nc1ccc(C2(NC(=O)c3ccc(Cl)nc3)CCC2)nc1)c1cc(F)cc(F)c1 [Example 41, 6-chloro-N-(1-{5-[(3,5-difluorobenzene-1-carbonyl)amino]pyridin-2-yl}cyclobutyl)pyridine-3-carboxamide] |
| ≥ 10000 | 8 | 696 | O=C(Nc1ccc(C2(NC(=O)c3ccc(Cl)nc3)CCC2)nc1)c1cccc(Cl)c1 [Example 42, 6-chloro-N-(1-{5-[(3-chlorobenzene-1-carbonyl)amino]pyridin-2-yl}cyclobutyl)pyridine-3-carboxamide] |
| ≥ 10000 | 2000 | – | N#Cc1ccc(C(=O)Nc2ccc(C3(NC(=O)c4ccc(Cl)nc4)CCC3)nc2)cc1 [Example 47, 6-chloro-N-(1-{5-[(4-cyanobenzene-1-carbonyl)amino]pyridin-2-yl}cyclobutyl)pyridine-3-carboxamide] |
| ≥ 10000 | 35 | – | N#Cc1cccc(C(=O)Nc2ccc(C3(NC(=O)c4ccc(Cl)nc4)CCC3)nc2)c1 [Example 48, 6-chloro-N-(1-{5-[(3-cyanobenzene-1-carbonyl)amino]pyridin-2-yl}cyclobutyl)pyridine-3-carboxamide] |
| ≥ 10000 | 1210 | – | N#Cc1cncc(C(=O)Nc2ccc(C3(NC(=O)c4ccc(Cl)nc4)CCC3)nc2)c1 [Example 49, N-(6-{1-[(6-chloropyridine-3-carbonyl)amino]cyclobutyl}pyridin-3-yl)-5-cyanopyridine-3-carboxamide] |
| ≥ 10000 | 1700 | – | O=C(NC1(c2ccc(NC(=O)c3ncccn3)cn2)CCC1)c1ccc(Cl)nc1 [Example 50, N-(6-{1-[(6-chloropyridine-3-carbonyl)amino]cyclobutyl}pyridin-3-yl)pyrimidine-2-carboxamide] |
| ≥ 10000 | 20 | – | O=C(Nc1ccc(C2(NC(=O)c3ccc(Cl)nc3)CCC2)nc1)c1cccc(F)c1 [Example 51, 6-chloro-N-(1-{5-[(3-fluorobenzene-1-carbonyl)amino]pyridin-2-yl}cyclobutyl)pyridine-3-carboxamide] |
| – | 2 | 9 | O=C(Nc1ccc(C2(C(=O)Nc3ccc(F)cc3)CCC2)nc1CO)c1cccc(Cl)c1 [Example 55, 3-Chloro-N-(6-(1-((4-fluorophenyl)carbamoyl)cyclobutyl)-2-(hydroxymethyl)pyridin-3-yl)benzamide] |
